Consider 12 compounds from ChEMBL document CHEMBL4376847, “Aryl Trehalose Derivatives as Vaccine Adjuvants for Mycobacterium tuberculosis” (J Med Chem, 2020).

Calls of active or inactive are those of the source. No cut-off for these calls is given here.

Assay [1] has as its target T1, C-type lectin domain family 4 member E (Homo sapiens) (UniProt Q9ULY5).
T1 sequence (whole entry): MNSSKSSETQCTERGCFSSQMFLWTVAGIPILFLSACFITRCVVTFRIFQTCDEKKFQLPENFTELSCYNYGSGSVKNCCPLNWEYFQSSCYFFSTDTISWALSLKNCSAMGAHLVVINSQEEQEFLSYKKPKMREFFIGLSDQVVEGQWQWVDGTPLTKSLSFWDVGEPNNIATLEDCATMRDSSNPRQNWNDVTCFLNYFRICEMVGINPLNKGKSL
Nature of the assay: Agonist activity at Mincle in human PBMC assessed as increase in TNF-alpha production at 1 to 1000 uM incubated for 18 to 24 hrs by ELISA. In general terms: ELISA stands for enzyme-linked immunosorbent assay.

Assay [2] concerns the target T1, C-type lectin domain family 4 member E (Homo sapiens). Nature of the assay: Agonist activity at Mincle in human PBMC assessed as increase in IL-6 secretion at 0.1 to 100 uM incubated for 18 to 24 hrs by luminex multiplex assay.
Assay [3] shares this target. Put plainly: Agonist activity at Mincle in human PBMC assessed as increase in IL-1beta secretion at 0.1 to 100 uM incubated for 18 to 24 hrs by luminex multiplex assay.
Assay [4] has the same target. Nature of the assay: Agonist activity at Mincle in human PBMC assessed as increase in IL-23 at 0.1 to 100 uM incubated for 18 to 24 hrs by luminex multiplex assay.
The target is the same in assay [5]. Put plainly: Agonist activity at Mincle in human PBMC assessed as increase in TNF-alpha level at 0.1 to 100 uM incubated for 18 to 24 hrs by luminex multiplex assay.
Assay [6] concerns the target T2, C-type lectin domain family 4 member E (Mus musculus) (UniProt Q9R0Q8).
T2 sequence (whole entry): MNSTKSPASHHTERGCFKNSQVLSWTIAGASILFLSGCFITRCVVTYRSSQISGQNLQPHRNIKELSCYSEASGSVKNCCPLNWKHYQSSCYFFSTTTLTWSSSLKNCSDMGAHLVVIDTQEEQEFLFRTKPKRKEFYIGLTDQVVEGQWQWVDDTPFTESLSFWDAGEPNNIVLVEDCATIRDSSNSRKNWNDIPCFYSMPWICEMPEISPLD
Put plainly: Agonist activity at Mincle in mouse RAW264.7 cells assessed as TNF-alpha secretion at 0.1 to 100 uM incubated for 18 to 24 hrs by ELISA. Type of assay: cell-based.

The target of assay [7] is T2, C-type lectin domain family 4 member E (Mus musculus). Put plainly: Agonist activity at Mincle in mouse RAW264.7 cells assessed as IL-6 production at 0.1 to 100 uM incubated for 18 to 24 hrs by ELISA. Format: cell-based.
For assay [8], the target named is T1, C-type lectin domain family 4 member E (Homo sapiens). Nature of the assay: Agonist activity at Mincle in human PBMC assessed as TNF-alpha secretion at 0.1 to 100 uM incubated for 18 to 24 hrs by ELISA.
Assay [9] has as its system Mus musculus. Nature of the assay: Immuno-adjuvant activity in M72-immunized BALB/c mouse assessed as potentiation of antibody response to M72 by measuring serum anti-M72 IgG level at 10 nmol, im administered immediately and day 14 and measured after 14 days by ELISA. Type of assay: functional, organism-based.
Assay [10] has as its system Mus musculus. Put plainly: Immuno-adjuvant activity in M72-immunized BALB/c mouse assessed as potentiation of antibody response to M72 by measuring serum anti-M72 IgG1 level at 10 nmol, im administered immediately and 14 and measured after 14 days by ELISA. Format: functional, organism-based.
Assay [11] has as its system Mus musculus. Nature of the assay: Immuno-adjuvant activity in M72-immunized BALB/c mouse assessed as potentiation of antibody response to M72 by measuring serum anti-M72 IgG2a level at 10 nmol, im administered immediately and 14 and measured after 14 days by ELISA. Type of assay: functional, organism-based.
Assay [12] deals with T1, C-type lectin domain family 4 member E (Homo sapiens). Nature of the assay: Agonist activity at human Mincle receptor expressed in human HEK cells assessed as NF-kappaB activation incubated for 24 hrs by SEAP reporter gene assay. Format: cell-based. On the technique in general: In a reporter assay the amount or activity of a reporter protein is the signal.
For assay [13], the target named is T2, C-type lectin domain family 4 member E (Mus musculus). Nature of the assay: Agonist activity at mouse Mincle receptor expressed in human HEK cells assessed as NF-kappaB activation incubated for 24 hrs by SEAP reporter gene assay. Format: cell-based.
Assay [14] has as its system Mus musculus. Put plainly: Immuno-adjuvant activity in M72-immunized BALB/c mouse assessed as potentiation of antibody response to M72 by measuring CD4+ IL-17A T-cells at 2 to 50 nmol, im administered immediately and 14 and measured after 5 days by immuno staining based flow cytometry. Format: functional, organism-based.
For assay [15], the system named is Mus musculus. Nature of the assay: Immuno-adjuvant activity in M72-immunized BALB/c mouse assessed as potentiation of antibody response to M72 by measuring IFNgamma at 2 to 50 nmol, im administered immediately and 14 and measured after 5 days by immuno staining based flow cytometry. Type of assay: functional, organism-based.
Assay [16] deals with Mus musculus. Put plainly: Immuno-adjuvant activity in M72-immunized BALB/c mouse assessed as potentiation of antibody response to M72 by measuring IL-5 at 2 to 50 nmol, im administered immediately and 14 and measured after 5 days by immuno staining based flow cytometry. Type of assay: functional, organism-based. Background: A flow cytometer gives signals particle by particle.

The subject of assay [17] is Mus musculus. Put plainly: Immuno-adjuvant activity in B42-immunized BALB/c mouse assessed as potentiation of antibody response to B42 by measuring CD4+ IL-17A T-cells at 2 to 50 nmol, im administered immediately and 14 and measured after 5 days by immuno staining based flow cytometry. Type of assay: functional, organism-based.

For the compound `CCOc1cc(OCC)cc(C(=O)OC[C@H]2O[C@H](O[C@H]3O[C@H](COC(=O)c4cc(OCC)cc(OCC)c4)[C@@H](O)[C@H](O)[C@H]3O)[C@H](O)[C@@H](O)[C@@H]2O)c1`, the outcome in assay [1], in assay [2], in assay [3], in assay [4] and in assay [5] was Active.

With `CC(C)(C)c1cc(C(C)(C)C)c(O)c(C(=O)OC[C@H]2O[C@H](O[C@H]3O[C@H](COC(=O)c4c(O)c(C(C)(C)C)cc(C(C)(C)C)c4O)[C@@H](O)[C@H](O)[C@H]3O)[C@H](O)[C@@H](O)[C@@H]2O)c1O`, the result in [6] and in [8] was Active. Also, the result in assay [7] was inactive.

Take `CCCCCCCC(CCCCCCC)C(=O)OC[C@H]1O[C@H](O[C@H]2O[C@H](COC(=O)C(CCCCCCC)CCCCCCC)[C@@H](O)[C@H](O)[C@H]2O)[C@H](O)[C@@H](O)[C@@H]1O`: the outcome in the assay with Mus musculus [9], with Mus musculus [10] and in the assay on Mus musculus [11] was Active.

Regarding `CC(C)(C)c1cc(C(=O)OC[C@H]2O[C@H](O[C@H]3O[C@H](COC(=O)c4cc(C(C)(C)C)cc(C(C)(C)C)c4O)[C@@H](O)[C@H](O)[C@H]3O)[C@H](O)[C@@H](O)[C@@H]2O)c(O)c(C(C)(C)C)c1`, the result (in assay [1]; in assay [2]; in [3]; in [4]; in [5]; with Mus musculus [11]) was Active. Also, the result with Mus musculus [14] was Active. Moreover, the Activity entry in [12] and in [13] was “Dose-dependent effect” each time. Moreover, the outcome in the assay on Mus musculus [9], in the assay with Mus musculus [10], with Mus musculus [15] and in the assay with Mus musculus [16] was inactive.

Regarding `CC(C)(C)c1ccc(O)c(C(=O)OC[C@H]2O[C@H](O[C@H]3O[C@H](COC(=O)c4cc(C(C)(C)C)ccc4O)[C@@H](O)[C@H](O)[C@H]3O)[C@H](O)[C@@H](O)[C@@H]2O)c1`, the outcome in [6] and in [8] was Active. The result in [7] was inactive.

Regarding `CC(C)(C)c1cc(C(=O)OC[C@H]2O[C@H](O[C@H]3O[C@H](COC(=O)c4cc(C(C)(C)C)cc(C(C)(C)C)c4)[C@@H](O)[C@H](O)[C@H]3O)[C@H](O)[C@@H](O)[C@@H]2O)cc(C(C)(C)C)c1`, the result in assay [6] and in [8] was Active. The result in [7] was inactive.

Regarding `COc1ccc(/C=C/C(=O)OC[C@H]2O[C@H](O[C@H]3O[C@H](COC(=O)/C=C/c4ccc(OC)c(OC)c4)[C@@H](O)[C@H](O)[C@H]3O)[C@H](O)[C@@H](O)[C@@H]2O)cc1OC`, the result in assay [1], in assay [2], in assay [3], in assay [4] and in assay [5] was Active.

For `CCCCCCCCCCCCCCCCCCCCCCC(C(=O)OC[C@H]1O[C@H](O[C@H]2O[C@H](COC(=O)C(CCCCCCCCCCCCCCCCCCCCCC)C(O)CCCCCCCCCCCCCCCCCC3CC3CCCCCCCCCCCCCCC3CC3CCCCCCCCCCCCCCCCCC)[C@@H](O)[C@H](O)[C@H]2O)[C@H](O)[C@@H](O)[C@@H]1O)C(O)CCCCCCCCCCCCCCCCCC1CC1CCCCCCCCCCCCCCC1CC1CCCCCCCCCCCCCCCCCC` (some centres not stated), the result in assay [12] and in assay [13] was inactive.

For `CCCCCCCCCCCCCCCCCCCCCC(=O)OC[C@H]1O[C@H](O[C@H]2O[C@H](COC(=O)CCCCCCCCCCCCCCCCCCCCC)[C@@H](O)[C@H](O)[C@H]2O)[C@H](O)[C@@H](O)[C@@H]1O`, the outcome (in assay [12]; in assay [13]; with Mus musculus [15]; in the assay with Mus musculus [16]) was inactive. In addition, the outcome in the assay on Mus musculus [11], in the assay on Mus musculus [14] and in the assay on Mus musculus [17] was Active.

Turning to `COc1cc(C)c(C(=O)OC[C@H]2O[C@H](O[C@H]3O[C@H](COC(=O)c4c(C)cc(OC)cc4OC)[C@@H](O)[C@H](O)[C@H]3O)[C@H](O)[C@@H](O)[C@@H]2O)c(OC)c1`, the result in assay [1], in assay [2], in assay [3], in assay [4] and in [5] was Active.

Take `CC(C)(C)c1cc(C(=O)OC[C@H]2O[C@H](O[C@H]3O[C@H](COC(=O)c4cc(C(C)(C)C)c(O)c(C(C)(C)C)c4)[C@@H](O)[C@H](O)[C@H]3O)[C@H](O)[C@@H](O)[C@@H]2O)cc(C(C)(C)C)c1O`: the outcome in assay [6] and in assay [8] was Active. For the same compound, in assay [7], the outcome was inactive.

Regarding `COc1cc(/C=C/C(=O)OC[C@H]2O[C@H](O[C@H]3O[C@H](COC(=O)/C=C/c4cc(OC)c(OC)c(OC)c4)[C@@H](O)[C@H](O)[C@H]3O)[C@H](O)[C@@H](O)[C@@H]2O)cc(OC)c1OC`, the outcome in assay [1], in assay [2], in [3], in assay [4] and in [5] was Active.
